This is an account of results in publication PMC9714921 (PLOS Pathogens, 2022).

For one assay, the system named is C. elegans N-AChR. Further details: method as in Charvet et al., 2018 [40]. The note with it: read-out: EC50 μM ACh; accessory protein Ric-3; ref Charvet et al., 2018 [40]; cited from earlier work.
A further assay deals with N. americanus N-AChR. The note with it: read-out: EC50 μM ACh; accessory protein Ric-3; ref [33]; cited from earlier work.
In assay [1] the target is Bma-ACR-16-asuICL chimera (Brugia malayi; Ascaris suum, UniProt A0A4E9FSR7+F1KYJ9). In kind it is cell-based, B. malayi (A. suum ICL). On the procedure:
(§1) B. malayi acr-16 and accessory proteins ric-3, unc-50, unc-74 and molo-1 were cloned from adult female B. malayi cDNA received as a gift from Dr. T. Geary using the primers described in S1 Table. B. malayi eat-18 was prepared from two overlapping oligonucleotide primers. Other subunits were synthesized from their predicted genome sequence (Gene Universal, USA) (S2 Table). […] All sequences were cloned into the pTD2 oocyte expression vector. Asu-ACR-16 and Tzc-ACR-16 chimeras were constructed using appropriate restriction enzymes, reciprocal exchange through ligation and confirmed by sequencing (McLab, USA).
(§2) cRNA for oocyte injection was prepared with the mMESSAGE mMACHINE T7 kit following manufacturers protocol (Ambion, USA). Concentration was determined using a Nanodrop spectrophotometer. Desired subunit combinations with associated accessory proteins were mixed and diluted with nuclease-free water to a final concentration of 250 ng/uL for each construct.
(§3) Adult female X. laevis oocyte extraction was performed in accordance with the McGill University Animal Use Protocol 2015–7758 following standard protocol. Briefly, frog ovary lobes were placed in a Ca^2+-free OR2 solution (82 mM NaCl, 2 mM KCl, 1 mM MgCl2, 5 mM HEPES buffer, pH 7.3) and manually divided into clusters of <10 oocytes with thin tweezers followed by a 90-minute incubation in 10 mg/mL collagenase type II (Sigma-Aldrich, USA). Oocytes were washed in Ca^2+-free OR2 and placed ND96 solution (NaCl 96 mM, KCl 2 mM, CaCl2 1.8 mM, MgCl2 1 mM and HEPES 5 mM, pH 7.3) supplemented with sodium pyruvate 2.5 mM [86] and incubated at 18°C until cRNA injection. Oocytes were injected with 50 nL (12.5 ng of each injected gene) of the desired cRNA subunit and accessory protein combination mix with the NanojectII (Drummond Scientific, USA). Following injection, oocytes were incubated in ND96 buffer at 18°C until electrophysiology. All electrophysiology was conducted two days post-injection, except for the expression analysis assay in which oocytes were measured every day after injection for three consecutive days.
All drugs were dissolved in recording solution (NaCl 100 mM, KCl 2.5 mM, CaCl2 1 mM, HEPES 5 mM, pH 7.3) to a stock concentration of 10 mM and diluted to their final recording concentrations. Oxantel and bephenium were first dissolved in DMSO to ensure a final recording concentration contained less than 0.1% DMSO. For agonist profiling, all drugs were diluted to a concentration of 100 μM.
Oocytes were placed individually in an RC3Z chamber (Harvard Apparatus, USA) submerged in recording solution (NaCl 100 mM, KCl 2.5 mM, CaCl2 1 mM, HEPES 5 mM, pH 7.3). The RC3Z chamber was connected to a perfusion system containing recording solution and ligand solutions. Pulled glass capillaries (World Precision Instruments, USA) were filled with 3M KCl and the tips clipped and checked for appropriate resistance (between 0.5 and 5 MΩ). A 3M KCl agar bridge grounded the oocyte bath chamber. Measurements were made using an Axon Axoclamp 900A amplifier with Digidata1550M. […] Ligand solutions were applied to the oocytes with an approximate flow rate of 1.2 m/s and current responses measured. Oocytes were exposed to the ligand solution until a distinct current peak was observed followed by a wash with the recording solution until current returned to baseline for a minimum of 10 seconds until the next ligand exposure. For BAPTA-AM exposed oocytes, oocytes were incubated in 100 μM BAPTA-AM for four hours prior to electrophysiology recording. Data was analyzed using Clampex 9.2 (Axon Instruments, USA) and statistical analysis and graphs produced in Prism (GraphPad version 9.1). T-tests were used to compare responses with error bars representing standard error. For concentration-response curves, individual oocyte current response to the different ligand concentrations were normalized to the response obtained with 300 μM.

In assay [2] the target is Asu-ACR-16-bmaICL chimera (Ascaris suum; Brugia malayi, UniProt A0A4E9FSR7+F1KYJ9). In kind it is cell-based, A. suum (B. malayi ICL). The note with it: listed as acetylcholine. On the procedure: as §1, §2, §3
All drugs were dissolved in recording solution (NaCl 100 mM, KCl 2.5 mM, CaCl2 1 mM, HEPES 5 mM, pH 7.3) to a stock concentration of 10 mM and diluted to their final recording concentrations. […]
Oocytes were placed individually in an RC3Z chamber (Harvard Apparatus, USA) submerged in recording solution (NaCl 100 mM, KCl 2.5 mM, CaCl2 1 mM, HEPES 5 mM, pH 7.3). […] Ligand solutions were applied to the oocytes with an approximate flow rate of 1.2 m/s and current responses measured. […] Data was analyzed using Clampex 9.2 (Axon Instruments, USA) and statistical analysis and graphs produced in Prism (GraphPad version 9.1). […]

The next assay has as its system P. equorum N-AChR. The note with it: read-out: EC50 μM ACh; accessory protein Ric-3; ref [40]; cited from earlier work.
The next assay relates to Asu-ACR-16-REM. The assay is described as follows: Voltage-clamp electrophysiology, coding-sequence modified ACR-16 in oocytes. In kind it is cell-based, A. suum. To be noted: B. malayi ric-3 co-injected; agonist not named in the legend (ACh by the matching native values). On the procedure:
as §1, §2
Adult female X. laevis oocyte extraction was performed in accordance with the McGill University Animal Use Protocol 2015–7758 following standard protocol. […] All electrophysiology was conducted two days post-injection, except for the expression analysis assay in which oocytes were measured every day after injection for three consecutive days. […]

“And” between values parts separate entries of the source, which are not always exact repeats. Equal entries are not always repeated. Where two headings read alike, the source gives them in different places.

On to `CC(=O)OCC[N+](C)(C)C` [ACh, acetylcholine], for which the half-maximal effective concentration (EC50) in the assay with C. elegans N-AChR was 22 ± 1.2 µM; with N. americanus N-AChR, 170 ± 19.2 µM; in the assay on P. equorum N-AChR, 6.4 ± 0.6 µM. Also, the “current response to 100 μM acetylcholine” value in assay [1] (No accessory protein) is 0 ± 0 (n=15) nA; in assay [1] (co-injected: Bma-ric-3 (reference condition), listed as acetylcholine) it was 59 ±43 nA and 59 ± 12 (n=14) nA; in assay [1] (co-injected: Bma-ric-3 + Bma-emc-6 + Cel-nra-2 + Cel-nra-4, listed as acetylcholine), 1 ± 2 nA and 1 ± 1 (n=11) nA; in assay [1] (co-injected: Bma-ric-3 + Cel-emc-6), 37 ± 12 (n=15) ns nA; in assay [1] (co-injected: Bma-ric-3 + Cel-nra-2 + Cel-nra-4, listed as acetylcholine), 47 ± 18 (n=14) ns nA; in assay [1] (co-injected: Bma-ric-3 + Cel-nra-2, listed as acetylcholine) it was 256 ± 89 (n=11) nA. For the same compound, the “current response to 100 μM acetylcholine” value in assay [2] (No accessory protein) is 22 ± 4 (n=14) nA; in assay [2] (co-injected: Bma-ric-3 (reference condition)) it was 3021 ± 444 nA and 3021 ± 128 (n=12) nA; in assay [2] (co-injected: Bma-ric-3 + Cel-nra-2) it was 2181 ± 99 (n=14) nA. Also, the current response in the assay with Asu-ACR-16-REM came to 2197 ± 383 nA.

A word on the EC50: it is the midpoint of the concentration-response curve.
